Measurements taken from patent US11591309B2, “Manufacturing method for and insecticidal compositions comprising thiocyclam hydrochloride” (Arysta L[…] America, LLC, priority 2016, dated 2023).

Tests used:
Assay type in all cases: in vivo
[1] = system: Codling moth, Cydiapomonella—neonate larvae; assay: Codling moth neonate larvae bioassay by diet incorporation, mortality; details: for LC50: Cydia pomonella, 48 h; for LC50 / LC90: mortality 2 days after treatment (D + 2), diet incorporation
Excerpt: Codling moth, Cydiapomonella—neonate larvae • Bioassay by diet incorporation • Mortality assessment 2 days after treatment • a.i. refers to active ingredient
(§1) LC stands for “Lethal Concentration”. LC values refer to the concentration of a chemical required to kill a certain proportion of a population of pests. The concentration of the chemical that kills 50 percent of the pests during the observation period is the LC50 value and a concentration that kills 90 percent of a population is LC90.

[2] = system: Soybean looper, Chrysodeixis includens—3rd larval stage; assay: Soybean looper 3rd larval stage bioassay by diet surface incorporation, mortality
Excerpt: Soybean looper, Chrysodeixis includens—3rd larval stage • Bioassay by diet surface incorporation • Mortality assessment 3 days after treatment • a.i. refers to active ingredient
as §1

[3] = system: Aphids Myzus persicae—larvae; assay: Aphid larvae on radish, boom sprayer application (IRAC no 019 adapted), mortality
Excerpt: Aphids Myzus persicae—larvae • Study based on IRAC no 019 methods, application method adapted • Plant: radish • Application on petri dish with larvae with a boom sprayer apparatus • Assessment of mortality 3 and 4 days after application • a.i. refers to active ingredient
(§2) LD stands for “Lethal Dose”. LD50 is the amount of an ingested substance that kills 50 percent of a test sample and […] is the lethal dose that kills 90 percent of the test sample.

[4] = system: White flies, Trialeurodes vaporarium—larvae; assay: White fly larvae on bean, boom sprayer application (IRAC no 015 adapted), mortality; details: for LD50 / LD90: boom sprayer
Excerpt: White flies, Trialeurodes vaporarium—larvae • Study based on IRAC no 015 methods, stage and application method adapted • Plant: bean • Application: On the petri dish with larvae with a boom sprayer apparatus • Assessment of mortality at 7, 9 and 14 days after application • a.i. refers to active ingredient
as §2

[5] = mortality 3 days after treatment (D + 3), diet surface incorporation

## CN(C)C(CSC(N)=O)CSC(N)=O [Cartap, S, S-[2-(dimethylamino)-1,3-propanediyl] dicarbamothioate, reference compound]
[1]
  LC50: 10.1 µg/mL
  LC90: 104.80 μg of a.i./ml of diet
[2]; [5]
  LC90: 908,897 μg of a.i./ml of diet
[3]; D +3, radish
  LD50: <18.18 g a.i./ha
  LD90: 36.70 g a.i./ha
[3]; D +4, radish
  LD50: <18.18 g a.i./ha
  LD90: 16 g a.i./ha
[4]; D +7, bean
  LD50: 213.7 g a.i./ha
  LD90: 2.3 × 10^6 g a.i./ha
[4]; D +9, bean
  LD50: 15.6 g a.i./ha
  LD90: 4,566.3 g a.i./ha
[4]; D +14, bean
  LD50: 10.4 g a.i./ha
  LD90: 910.4 g a.i./ha

## CN(C)C1CSSSC1.Cl [Thiocyclam HCl, N,N-dimethyl-1,2,3-trithian-5-ylamine hydrochloride]
[1]
  LC50: 2.57 µg/mL
  LC90: 10.80 μg of a.i./ml of diet
[1]; example 1, comparison in words
  LC50 and LC90 compared to thiocyclam oxalate: significantly lower concentrations than thiocyclam oxalate
[1]; example 1, ratio versus cartap
  times less at LC50 compared to cartap: approximately 4 times
  times less at LC90 compared to cartap: approximately 9 times
[2]; 72 h, mortality 3 days after treatment (D + 3), diet surface incorporation
  LC50: 8990 µg/mL
[2]; example 2, comparison in words
  LC90 compared to cartap: more than three times lower
  LC90 compared to thiocyclam oxalate: orders of magnitude smaller
[2]; example 2, ratio versus cartap
  times less at LC50 than cartap: approximately 6 times
[2]; example 2, ratio versus thiocyclam oxalate
  times less at LC50 than thiocyclam oxalate: approximately 20 times
[2]; [5]
  LC90: 251,759 μg of a.i./ml of diet
[3]; D +3, radish
  LD50: 12.04 g a.i./ha
  LD90: 30.51 g a.i./ha
[3]; D +4, radish
  LD50: 7.66 g a.i./ha
  LD90: 27.07 g a.i./ha
[4]; D +7, bean
  LD50: 2.22 g a.i./ha
  LD90: 1,899 g a.i./ha
[4]; D +9, bean
  LD50: 2.23 g a.i./ha
  LD90: 4,905 g a.i./ha
[4]; D +14, bean
  LD50: 0.82 g a.i./ha
  LD90: 7,910 g a.i./ha
[4]; example 4, days 7 and 9
  LD90 compared to cartap: lower application concentration compared to cartap
